Results from patent US10908153B2, “Pseudomonas aeruginosa inhibitor compounds” (priority 2015, dated 2021).

Biological target: T1, PscE-PscG interaction (Pseudomonas aeruginosa, UniProt P95435+Q9I317)
T1 construct: made in house; host or cells: E. coli
Assay: ELISA test of inhibition of the PscE-PscG interaction
Assay type: binding
Conditions: for inhibition at 25 µM: read-out: % inhibition PscE-PscG at 50 μm; for PscE-PscG at 50 μM: inhibition by new synthetic analogues at 50 μM, PscG 2.2 μM, PscE solution 3 μM; for inhibition at 50 µM: 4 h, read-out: PscE-PscG at 50 μM; for inhibitory effect compared with clioquinol: ELISA test, 50 μM, Table 2
Experimental: 50 μL of PscG protein at 1 μM (for screening libraries) or 2.2 μM (for screening newly synthesized molecules) is incubated in a NUNC 96-well plate for 8 h at 4° C. The wells are washed three times with 200 μL of 1× PBS/0.1% Tween20®. The wells are treated overnight at 4° C. with 200 μL of a 5% milk solution in 1× PBS/0.1% Tween20®. The solution is then discarded, and the plate is drained dry.
The test is carried out as follows:
Negative control (lowest signal level): 100 μL of buffer ([…] Tris-HCl, 250 mM NaCl, pH 8.0);
Positive control (highest signal level): 50 μL of buffer and 50 μL of a test solution at 25 (library screening) or 3 μM (screening of analogue molecules) of the PscE protein;
Test of the inhibitors: 40 μL buffer, 50 μL of a solution at 25 μM (library screening) or 3 μM (screening of analogue molecules) of PscE protein and 10 μL of the solution containing the inhibitor to be tested.
The solutions are left for 4 h at room temperature.
The wells are washed three times with 200 μL of 1× PBS/0.1% Tween20®. The anti-PscE antibody diluted to 1:2,000 in 1× PBS/0.1% Tween20®, 50 μL, is added and the whole is left 2 h at room temperature. The wells are washed three times with 200 μL of 1× PBS/0.1% Tween20®. The HRP-conjugated anti-mouse antibody is diluted to 1:5,000 in 1× PBS/0.1% Tween20® and 50 μL is added and left for 2 h at room temperature. The wells are washed three times with 200 μL of 1× PBS/0.1% Tween20®.
The ELISA test is developed by adding 50 μL of TMB reagent followed by incubation for 15 minutes at room temperature in the dark. The reaction is stopped by adding 50 μL of 2N HCl. The plate is read at 450 nm.

T1 sequence (Q9I317 whole entry): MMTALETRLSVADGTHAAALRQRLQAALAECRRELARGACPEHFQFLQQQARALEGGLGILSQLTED
T1 sequence (P95435 whole entry): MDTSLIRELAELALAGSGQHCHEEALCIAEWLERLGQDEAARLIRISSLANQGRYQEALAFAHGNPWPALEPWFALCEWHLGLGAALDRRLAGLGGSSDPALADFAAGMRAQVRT

In the case of Cc1cc2c(C(C)C)c(O)c(O)c(C=O)c2c(O)c1-c1c(C)cc2c(C(C)C)c(O)c(O)c(C=O)c2c1O [Gossypol, reference compound], the inhibition at 25 µM is reported as 73.9%.

Oc1c(I)cc(Cl)c2cccnc12 [Clioquinol, reference compound] was tested, and the IC50 was 5 µM, the “PscE-PscG at 50 μM” value (240 min) was 45.2% and the inhibition at 25 µM was 93.7%.

With [N-]=[N+]=NCCCCOCCCc1ccc[n+](CCCCCCOCCCc2cccnc2)c1 [molecule 18, 3-(3-(4-azidobutoxy)propyl)-1-(6-(3-(pyridin-3-yl)propoxy)hexyl)pyridinium chloride] the “PscE-PscG at 50 μM” value was “no inhibition”.

With [N-]=[N+]=NCCCCCCOCCCc1ccc[n+](CCCCCCCCCCCCOCCCc2cccnc2)c1 [molecule 28, 3-(3-(6-azidohexyloxy)propyl)-1-(12-(3-(pyridin-3-yl)propoxy)dodecyl)pyridinium chloride] the inhibition at 50 µM was 37.8%.

With CC(=O)Oc1c(-c2cn(CCCCCCOCCCc3ccc[n+](CCCCCCOCCCc4cccnc4)c3)nn2)cc(Cl)c2cccnc12 [molecule 39, 3-(3-(6-(4-(8-acetoxy-5-chloroquinolin-7-yl)-1H-1,2,3-triazol-1-yl)hexyloxy)propyl)-1-(6-(3-(pyridin-3-yl)propoxy)hexyl)pyridinium chloride] the inhibition at 50 µM was 97.3% and the “inhibitory effect compared with clioquinol” value was “superior to clioquinol”.

[N-]=[N+]=NCCCCCCOCCCc1ccc[n+](CCCCCCCCOCCCc2cccnc2)c1 [molecule 22, 3-(3-(6-azidohexyloxy)propyl)-1-(8-(3-(pyridin-3-yl)propoxy)octyl)pyridinium chloride] was tested, and the inhibition at 50 µM was 88.8% and the “inhibitory effect compared with clioquinol” value was “superior to clioquinol”.

With CC1(C)CC[C@]2(C(=O)O)CC[C@]3(C)C(=CC[C@@H]4[C@@]5(C)CC[C@H](O)[C@@](C)(CO)[C@@H]5CC[C@]43C)[C@@H]2C1 [Hederagenin, reference compound] the inhibition at 25 µM was 58%.

CC(=O)Oc1c(-c2cn(CCCCCCCCCCOCCCc3ccc[n+](CCCCCCCCCCOCCCc4cccnc4)c3)nn2)cc(Cl)c2cccnc12 [molecule 48, 3-(3-(10-(4-(8-acetoxy-5-chloroquinolin-7-yl)-1H-1,2,3-triazol-1-yl)decyloxy)propyl)-1-(10-(3-(pyridin-3-yl)propoxy)decyl)pyridinium chloride] was tested, and the inhibition at 50 µM was 72.3% and the “inhibitory effect compared with clioquinol” value was “superior to clioquinol”.

CC(=O)Oc1c(-c2cn(CCCCCCCCOCCCc3ccc[n+](CCCCCCCCOCCCc4cccnc4)c3)nn2)cc(Cl)c2cccnc12 [molecule 43, 3-(3-(8-(4-(8-acetoxy-5-chloroquinolin-7-yl)-1H-1,2,3-triazol-1-yl)octyloxy)propyl)-1-(8-(3-(pyridin-3-yl)propoxy)octyl)pyridinium chloride] showed an inhibition at 50 µM of 29.5%.

With [N-]=[N+]=NCCCCOCCCc1ccc[n+](CCCCCCCCOCCCc2cccnc2)c1 [molecule 20, 3-(3-(4-azidobutoxy)propyl)-1-(8-(3-(pyridin-3-yl)propoxy)octyl)pyridinium chloride] the “PscE-PscG at 50 μM” value was “no inhibition”.

CC(=O)Oc1c(-c2cn(CCCCCCCCCCCCOCCCc3ccc[n+](CCCCCCCCOCCCc4cccnc4)c3)nn2)cc(Cl)c2cccnc12 [molecule 49, 3-(3-(12-(4-(8-acetoxy-5-chloroquinolin-7-yl)-1H-1,2,3-triazol-1-yl)dodecyloxy)propyl)-1-(8-(3-(pyridin-3-yl)propoxy)octyl)pyridinium chloride] was tested, and the inhibition at 50 µM was 69.8% and the “inhibitory effect compared with clioquinol” value was “superior to clioquinol”.

For CC(=O)Oc1c(-c2cn(CCCCCCOCCCc3ccc[n+](CCCCCCCCCCCCOCCCc4cccnc4)c3)nn2)cc(Cl)c2cccnc12 [molecule 46, 3-(3-(6-(4-(8-acetoxy-5-chloroquinolin-7-yl)-1H-1,2,3-triazol-1-yl)hexyloxy)propyl)-1-(12-(3-(pyridin-3-yl)propoxy)dodecyl)pyridinium chloride], the “PscE-PscG at 50 μM” value was “no inhibition”.

Molecule [N-]=[N+]=NCCCCCCCCCCCCOCCCc1ccc[n+](CCCCOCCCc2cccnc2)c1 [molecule 26, 3-(3-(12-azidododecyloxy)propyl)-1-(4-(3-(pyridin-3-yl)propoxy)butyl)pyridinium chloride] has an inhibition at 50 µM of 44.2%.

For CC(=O)Oc1c(-c2cn(CCCCCCCCOCCCc3ccc[n+](CCCCCCOCCCc4cccnc4)c3)nn2)cc(Cl)c2cccnc12 [molecule 41, 3-(3-(8-(4-(8-acetoxy-5-chloroquinolin-7-yl)-1H-1,2,3-triazol-1-yl)octyloxy)propyl)-1-(6-(3-(pyridin-3-yl)propoxy)hexyl)pyridinium chloride], the inhibition at 50 µM was 69.1% and the “inhibitory effect compared with clioquinol” value was “superior to clioquinol”.

With [N-]=[N+]=NCCCCCCCCOCCCc1ccc[n+](CCCCCCCCCCOCCCc2cccnc2)c1 [molecule 29, 3-(3-(8-azidooctyloxy)propyl)-1-(10-(3-(pyridin-3-yl)propoxy)decyl)pyridinium chloride] the inhibition at 50 µM was 24%.

O=c1c(O)c(-c2cc(O)c(O)c(O)c2)oc2cc(O)cc(O)c12 [Myricetin, reference compound] showed an inhibition at 25 µM of 80.5%.

[N-]=[N+]=NCCCCCCCCCCCCOCCCc1ccc[n+](CCCCCCCCCCOCCCc2cccnc2)c1 [molecule 33, 3-(3-(12-azidododecyloxy)propyl)-1-(10-(3-(pyridin-3-yl)propoxy)decyl)pyridinium chloride] was tested, and the inhibition at 50 µM was 54.2% and the “inhibitory effect compared with clioquinol” value was “superior to clioquinol”.

With CC(=O)Oc1c(-c2cn(CCCCCCCCCCCCOCCCc3ccc[n+](CCCCCCCCCCCCOCCCc4cccnc4)c3)nn2)cc(Cl)c2cccnc12 [molecule 52, 3-(3-(12-(4-(8-acetoxy-5-chloroquinolin-7-yl)-1H-1,2,3-triazol-1-yl)dodecyloxy)propyl)-1-(12-(3-(pyridin-3-yl)propoxy)dodecyl)pyridinium chloride] the inhibition at 50 µM was 3.4%.

With CC(=O)Oc1c(-c2cn(CCCCCCOCCCc3ccc[n+](CCCCCCCCOCCCc4cccnc4)c3)nn2)cc(Cl)c2cccnc12 [molecule 40, 3-(3-(6-(4-(8-acetoxy-5-chloroquinolin-7-yl)-1H-1,2,3-triazol-1-yl)hexyloxy)propyl)-1-(8-(3-(pyridin-3-yl)propoxy)octyl)pyridinium chloride] the inhibition at 50 µM was 87.2% and the “inhibitory effect compared with clioquinol” value was “superior to clioquinol”.

Molecule CC(=O)Oc1c(-c2cn(CCCCOCCCc3ccc[n+](CCCCCCCCOCCCc4cccnc4)c3)nn2)cc(Cl)c2cccnc12 [molecule 38, 3-(3-(4-(4-(8-acetoxy-5-chloroquinolin-7-yl)-1H-1,2,3-triazol-1-yl)butoxy)propyl)-1-(8-(3-(pyridin-3-yl)propoxy)octyl)pyridinium chloride] has an inhibition at 50 µM of 27.3%.

NC(CO)C(=O)NNCc1ccc(O)c(O)c1O (stereo not shown) [Benserazide, reference compound] gave an IC50 of 11 µM and an inhibition at 25 µM of 86.3%.

CC(=O)Oc1c(-c2cn(CCCCOCCCc3ccc[n+](CCCCOCCCc4cccnc4)c3)nn2)cc(Cl)c2cccnc12 [molecule 35, 3-(3-(4-(4-(8-acetoxy-5-chloroquinolin-7-yl)-1H-1,2,3-triazol-1-yl)butoxy)propyl)-1-(4-(3-(pyridin-3-yl)propoxy)butyl)pyridinium chloride] was tested, and the inhibition at 50 µM was 29.8%.

[N-]=[N+]=NCCCCCCCCCCCCOCCCc1ccc[n+](CCCCCCCCCCCCOCCCc2cccnc2)c1 [molecule 34, 3-(3-(12-azidododecyloxy)propyl)-1-(12-(3-(pyridin-3-yl)propoxy)dodecyl)pyridinium chloride] showed an inhibition at 50 µM of 30.6%.

CC(=O)Oc1c(-c2cn(CCCCCCCCOCCCc3ccc[n+](CCCCCCCCCCOCCCc4cccnc4)c3)nn2)cc(Cl)c2cccnc12 [molecule 47, 3-(3-(8-(4-(8-acetoxy-5-chloroquinolin-7-yl)-1H-1,2,3-triazol-1-yl)octyloxy)propyl)-1-(10-(3-(pyridin-3-yl)propoxy)decyl)pyridinium chloride] was tested, and the “PscE-PscG at 50 μM” value was “no inhibition”.

With CC(=O)Oc1c(-c2cn(CCCCCCOCCCc3ccc[n+](CCCCCCCCCCOCCCc4cccnc4)c3)nn2)cc(Cl)c2cccnc12 [molecule 45, 3-(3-(6-(4-(8-acetoxy-5-chloroquinolin-7-yl)-1H-1,2,3-triazol-1-yl)hexyloxy)propyl)-1-(10-(3-(pyridin-3-yl)propoxy)decyl)pyridinium chloride] the inhibition at 50 µM was 71.6% and the “inhibitory effect compared with clioquinol” value was “superior to clioquinol”.

Work on CC(=O)Oc1c(-c2cn(CCCCCCCCCCCCOCCCc3ccc[n+](CCCCCCCCCCOCCCc4cccnc4)c3)nn2)cc(Cl)c2cccnc12 [molecule 51, 3-(3-(12-(4-(8-acetoxy-5-chloroquinolin-7-yl)-1H-1,2,3-triazol-1-yl)dodecyloxy)propyl)-1-(10-(3-(pyridin-3-yl)propoxy)decyl)pyridinium chloride] yielded an inhibition at 50 µM of 28.9%.
